Source: US20100113507A1, “3-Tetrazolyl Indazoles, 3-Tetrazolyl Pyrazolopyridines, and use Thereof” (BAYER HEALTHCARE AG, priority 2006, published 2010)

Experiments:
[1] = reported by A. Straub et al., Bioorg. Med. Chem. Lett. 11, 781-784 (2001); cited from earlier work
aorta rings = assay: Vasorelaxant effect in vitro (phenylephrine-contracted aorta rings); format: cell-based, Rabbits; conditions: Oryctolagus cuniculus; rabbit aorta rings, contraction induced by phenylephrine, 37° C., 0.1% DMSO; read-out: IC50 (concentration necessary to reduce the level of contraction by 50%)
Procedure: Rabbits are stunned by a blow to the back of the neck and are exsanguinated. The aorta is removed, freed of adherent tissue, divided into rings 1.5 mm wide and placed singly in 5 ml organ baths with carbogen-gassed Krebs-Henseleit solution of the following composition (in each case mM): NaCl: 119; KCl: 4.8; CaCl2×2H2O: 1; MgSO4×7H2O: 1.4; KH2PO4: 1.2; NaHCO3: 25; glucose: 10, under an initial tension at 37° C. The force of contraction is detected with Statham UC2 cells, amplified and digitized via A/D converters (DAS-1802 HC, Keithley Instruments Munich), and recorded in parallel on chart recorders. A contraction is induced by adding phenylephrine to the bath cumulatively in increasing concentration. After several control cycles, the substance to be investigated is added in each further run in increasing dosage each time, and the level of contraction is compared with the level of contraction achieved in the last preceding run. The concentration necessary to reduce the level of contraction by 50% (IC50) is calculated therefrom. The standard application volume is 5 μl and the DMSO content in the bath solution corresponds to 0.1%.

| IC50 (aorta rings) [µM] | SMILES | vasorelaxant effect [1] |
| --- | --- | --- |
|  | Fc1ccccc1Cn1nc(-c2nnn[nH]2)c2cccnc21 [1-(2-fluorobenzyl)-3-(1H-tetrazol-5-yl)-1H-pyrazolo[3,4-b]pyridine] | moderately vasorelaxant effect |
| 2 | c1cnc2c(c1)c(-c1nnn[nH]1)nn2CC1CCCCCC1 [Example 1, 1-(Cycloheptylmethyl)-3-(1H-tetrazol-5-yl)-1H-pyrazolo[3,4-b]pyridine] |  |
| 4.5 | Fc1cccc(Cn2nc(-c3nnn[nH]3)c3cccnc32)c1F [Example 4, 1-(2,3-Difluorobenzyl)-3-(1H-tetrazol-5-yl)-1H-pyrazolo[3,4-b]pyridine] |  |
| 6.1 | Clc1ccc(Cn2nc(-c3nnn[nH]3)c3cccnc32)s1 [Example 7, 1-[(5-Chloro-2-thienyl)methyl]-3-(1H-tetrazol-5-yl)-1H-pyrazolo[3,4-b]pyridine] |  |
